Activity calls are given as the source filed them. The rule behind the calls is not given here.
Key:
Coagulation factor XII [1] = molecular target: T1, Coagulation factor XII (Homo sapiens, UniProt P00748); experiment: Inhibition of FXIIa (unknown origin) using H-D-Pro-Phe-Arg-pNA as substrate incubated for 20 mins followed by substrate addition by spectrophotometric analysis
T1 sequence (P00748 whole entry): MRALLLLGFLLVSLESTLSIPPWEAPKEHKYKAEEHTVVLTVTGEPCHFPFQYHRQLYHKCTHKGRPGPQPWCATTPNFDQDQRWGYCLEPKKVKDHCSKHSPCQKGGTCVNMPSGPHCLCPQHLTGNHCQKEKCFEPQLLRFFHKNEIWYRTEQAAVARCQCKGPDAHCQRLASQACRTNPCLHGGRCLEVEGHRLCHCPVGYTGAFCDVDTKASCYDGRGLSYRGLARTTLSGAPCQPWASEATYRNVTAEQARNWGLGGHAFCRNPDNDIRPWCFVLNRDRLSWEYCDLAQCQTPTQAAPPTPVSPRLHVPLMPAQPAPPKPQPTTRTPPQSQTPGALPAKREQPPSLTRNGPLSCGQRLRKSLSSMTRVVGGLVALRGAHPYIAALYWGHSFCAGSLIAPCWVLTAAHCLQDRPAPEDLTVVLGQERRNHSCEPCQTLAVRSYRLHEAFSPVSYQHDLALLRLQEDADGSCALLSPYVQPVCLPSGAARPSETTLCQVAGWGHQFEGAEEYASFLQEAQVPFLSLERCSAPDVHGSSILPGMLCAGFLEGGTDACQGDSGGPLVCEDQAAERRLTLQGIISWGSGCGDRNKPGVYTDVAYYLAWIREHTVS

[2] = molecular target: T2, Coagulation factor XII (Homo sapiens) (UniProt P00748); experiment: Inhibition of FXIIa (unknown origin) using H-D-Pro-Phe-Arg-pNA as substrate at 500 nM incubated for 20 mins followed by substrate addition by spectrophotometric analysis relative to control
T2 sequence (whole entry): T1 sequence (P00748 whole entry)

Coagulation factor XII [3] = molecular target: T1, Coagulation factor XII; experiment: Inhibition of human FXIIa (unknown origin)
RAW264.7 [4] = experiment: Antiinflammatory activity in mouse RAW264.7 cells assessed as inhibition of LPS-induced IL-6 expression at 10 uM preincubated for 12 hrs followed by LPS stimulation and measured after 12 hrs by real time quantitative RT-PCR assay; format: functional, cell-based; details: time 24.0 hrs
RAW264.7 [5] = experiment: Antiinflammatory activity in mouse RAW264.7 cells assessed as inhibition of LPS-induced IL-1 beta expression at 10 uM preincubated for 12 hrs followed by LPS stimulation and measured after 12 hrs by real time quantitative RT-PCR assay; format: functional, cell-based; details: time 24.0 hrs
[6] = Selectivity index, ratio of IC50 for PKal (unknown origin) to IC50 for FXIIa (unknown origin)
[7] = Selectivity index, ratio of IC50 for chymotrypsin (unknown origin) to IC50 for FXIIa (unknown origin)
Chymotrypsin = Chymotrypsin (Homo sapiens, UniProt Q99895+P17538+P40313+Q6GPI1); experiment: Inhibition of Chymotrypsin (unknown origin) using N-Suc-Ala-Ala-Pro-Phe-pNA as chromogenic substrate incubated for 20 mins followed by substrate addition by spectrophotometric analysis; format: protein assay
[8] = Selectivity index, ratio of IC50 for FXIa (unknown origin) to IC50 for FXIIa (unknown origin)
Plasminogen = Plasminogen (Homo sapiens, UniProt P00747); experiment: Inhibition of plasmin (unknown origin) using PyroGlu-Phe-Lys-pNA.HCl as chromogenic substrate incubated for 20 mins followed by substrate addition by spectrophotometric analysis
Plasminogen, sequence (P00747 97-580 limits assumed): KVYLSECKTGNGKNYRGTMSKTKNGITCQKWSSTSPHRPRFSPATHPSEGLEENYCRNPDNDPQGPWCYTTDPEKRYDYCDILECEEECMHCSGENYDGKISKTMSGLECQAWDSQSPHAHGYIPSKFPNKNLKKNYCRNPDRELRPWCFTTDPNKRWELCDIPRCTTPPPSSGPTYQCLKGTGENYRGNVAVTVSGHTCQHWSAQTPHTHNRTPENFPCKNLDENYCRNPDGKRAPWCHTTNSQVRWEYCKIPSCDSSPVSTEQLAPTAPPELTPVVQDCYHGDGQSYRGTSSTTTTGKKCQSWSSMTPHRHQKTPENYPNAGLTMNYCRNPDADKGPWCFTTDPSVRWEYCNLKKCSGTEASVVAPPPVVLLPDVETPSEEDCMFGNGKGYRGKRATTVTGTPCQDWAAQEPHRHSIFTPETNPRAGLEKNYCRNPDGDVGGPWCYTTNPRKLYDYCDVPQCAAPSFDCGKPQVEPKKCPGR
Plasminogen, sequence (P00747 581-810 limits assumed): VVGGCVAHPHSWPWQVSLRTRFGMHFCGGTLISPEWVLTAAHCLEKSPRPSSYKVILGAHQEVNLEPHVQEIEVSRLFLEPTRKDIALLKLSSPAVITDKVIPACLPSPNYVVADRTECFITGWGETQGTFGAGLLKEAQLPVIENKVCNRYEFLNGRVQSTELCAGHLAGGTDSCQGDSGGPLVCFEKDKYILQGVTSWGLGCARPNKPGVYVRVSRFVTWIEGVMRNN

[9] = molecular target: Tissue-type plasminogen activator (Homo sapiens, UniProt P00750); experiment: Inhibition of tPA (unknown origin) using H-D-lle-Pro-Arg-pNA-2HCl as chromogenic substrate incubated for 20 mins followed by substrate addition by spectrophotometric analysis
Tissue-type plasminogen activator, sequence (P00750 whole entry): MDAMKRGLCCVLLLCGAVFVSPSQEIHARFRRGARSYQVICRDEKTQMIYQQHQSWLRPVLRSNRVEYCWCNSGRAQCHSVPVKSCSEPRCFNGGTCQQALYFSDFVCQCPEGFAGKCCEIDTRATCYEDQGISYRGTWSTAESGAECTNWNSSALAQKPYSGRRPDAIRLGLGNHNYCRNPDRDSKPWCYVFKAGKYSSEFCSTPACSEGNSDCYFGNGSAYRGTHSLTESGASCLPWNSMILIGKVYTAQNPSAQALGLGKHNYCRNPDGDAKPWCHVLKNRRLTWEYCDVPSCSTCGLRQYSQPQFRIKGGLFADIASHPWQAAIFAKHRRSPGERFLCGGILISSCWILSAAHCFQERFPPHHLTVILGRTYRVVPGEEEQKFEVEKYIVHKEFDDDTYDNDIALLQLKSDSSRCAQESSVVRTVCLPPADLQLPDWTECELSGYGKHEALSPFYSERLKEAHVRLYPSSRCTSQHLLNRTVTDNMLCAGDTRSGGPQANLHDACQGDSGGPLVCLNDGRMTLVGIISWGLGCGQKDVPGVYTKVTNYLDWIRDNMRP

[10] = Selectivity index, ratio of IC50 for plasmin (unknown origin) to IC50 for FXIIa (unknown origin)
Trypsin = Trypsin (Homo sapiens, UniProt P07477+P07478+P35030); experiment: Inhibition of trypsin (unknown origin) using Bz-lle-Glu(gamma-OR)-Gly-Arg-pNA.HCl as chromogenic substrate incubated for 20 mins followed by substrate addition by spectrophotometric analysis; format: protein assay
[11] = Selectivity index, ratio of IC50 for FXa (unknown origin) to IC50 for FXIIa (unknown origin)
Plasma kallikrein = Plasma kallikrein (Homo sapiens, UniProt P03952); experiment: Inhibition of PKal (unknown origin) using H-D-Pro-Phe-Arg-pNA-2HCl as substrate incubated for 20 mins followed by substrate addition by spectrophotometric analysis
Plasma kallikrein, sequence (P03952 20-390 limits assumed): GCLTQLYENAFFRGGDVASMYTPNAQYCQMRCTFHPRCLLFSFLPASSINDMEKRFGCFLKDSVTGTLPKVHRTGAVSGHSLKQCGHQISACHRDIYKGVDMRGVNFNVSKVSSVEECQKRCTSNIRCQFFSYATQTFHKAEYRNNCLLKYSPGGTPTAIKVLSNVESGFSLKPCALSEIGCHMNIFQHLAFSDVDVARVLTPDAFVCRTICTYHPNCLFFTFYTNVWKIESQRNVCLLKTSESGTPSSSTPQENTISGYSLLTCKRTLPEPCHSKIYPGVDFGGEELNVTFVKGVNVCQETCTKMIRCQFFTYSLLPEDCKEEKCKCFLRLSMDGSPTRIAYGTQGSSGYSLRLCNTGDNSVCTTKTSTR
Plasma kallikrein, sequence (P03952 391-638 limits assumed): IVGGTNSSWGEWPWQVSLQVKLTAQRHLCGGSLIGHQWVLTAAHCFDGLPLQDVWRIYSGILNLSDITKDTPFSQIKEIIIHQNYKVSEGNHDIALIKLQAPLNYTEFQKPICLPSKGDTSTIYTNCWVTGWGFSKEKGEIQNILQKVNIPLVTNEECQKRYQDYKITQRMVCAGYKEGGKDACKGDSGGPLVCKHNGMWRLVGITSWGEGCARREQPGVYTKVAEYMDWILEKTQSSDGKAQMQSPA

Coagulation factor X = Coagulation factor X (Homo sapiens, UniProt P00742); experiment: Inhibition of FXa (unknown origin) using Z-D-Arg-Gly-Arg-pNA.2HCl as chromogenic substrate incubated for 20 mins followed by substrate addition by spectrophotometric analysis
Coagulation factor X, sequence (P00742 41-179 limits assumed): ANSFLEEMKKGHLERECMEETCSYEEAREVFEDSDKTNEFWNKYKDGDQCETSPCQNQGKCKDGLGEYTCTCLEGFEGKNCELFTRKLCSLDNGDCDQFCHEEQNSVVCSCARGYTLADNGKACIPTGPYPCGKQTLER
Coagulation factor X, sequence (P00742 235-488 limits assumed): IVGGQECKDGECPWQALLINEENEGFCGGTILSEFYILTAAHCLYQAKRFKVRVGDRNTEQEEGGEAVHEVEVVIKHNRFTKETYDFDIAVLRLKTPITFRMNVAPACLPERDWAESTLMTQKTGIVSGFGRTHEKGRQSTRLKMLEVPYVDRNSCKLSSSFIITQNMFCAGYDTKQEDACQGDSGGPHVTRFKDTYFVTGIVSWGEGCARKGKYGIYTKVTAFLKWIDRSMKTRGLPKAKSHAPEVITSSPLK

Coagulation factor XI = Coagulation factor XI (Homo sapiens, UniProt P03951); experiment: Inhibition of FXIa (unknown origin) using p-Glu-Pro-Arg-pNA.HCl as chromogenic substrate incubated for 20 mins followed by substrate addition by spectrophotometric analysis
Coagulation factor XI, sequence (P03951 19-387 limits assumed): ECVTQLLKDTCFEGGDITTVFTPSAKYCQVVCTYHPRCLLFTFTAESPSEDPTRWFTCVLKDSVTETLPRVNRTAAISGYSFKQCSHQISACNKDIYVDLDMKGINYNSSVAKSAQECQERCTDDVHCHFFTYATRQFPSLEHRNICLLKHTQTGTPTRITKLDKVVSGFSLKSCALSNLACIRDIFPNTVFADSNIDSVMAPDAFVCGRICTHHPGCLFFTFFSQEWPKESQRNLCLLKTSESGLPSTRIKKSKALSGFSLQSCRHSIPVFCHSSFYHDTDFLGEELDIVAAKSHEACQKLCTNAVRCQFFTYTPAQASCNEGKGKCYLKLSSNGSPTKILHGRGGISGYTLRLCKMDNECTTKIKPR
Coagulation factor XI, sequence (P03951 388-625 limits assumed): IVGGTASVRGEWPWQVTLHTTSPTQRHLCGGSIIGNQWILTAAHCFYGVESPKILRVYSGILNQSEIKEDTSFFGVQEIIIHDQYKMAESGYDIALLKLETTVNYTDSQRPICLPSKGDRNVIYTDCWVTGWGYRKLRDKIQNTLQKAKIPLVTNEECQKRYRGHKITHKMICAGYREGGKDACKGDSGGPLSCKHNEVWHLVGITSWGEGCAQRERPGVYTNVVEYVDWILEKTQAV

[12] = Selectivity index, ratio of IC50 for thrombin (unknown origin) to IC50 for FXIIa (unknown origin)
Plasma [13] = experiment: Anticoagulant activity in human plasma assessed as prolongation of […] time at 300 uM incubated for 2 mins by PT reagent based assay; format: functional, cell-free
[14] = Selectivity index, ratio of IC50 for tPA (unknown origin) to IC50 for FXIIa (unknown origin)
Prothrombin = Prothrombin (Homo sapiens, UniProt P00734); experiment: Inhibition of thrombin (unknown origin) using H-D-Phe-Pip-Arg-pNA-2HCl as substrate incubated for 20 mins followed by substrate addition by spectrophotometric analysis
[15] = Selectivity index, ratio of IC50 for trypsin (unknown origin) to IC50 for FXIIa (unknown origin)
Plasma [16] = experiment: Anticoagulant activity in human plasma assessed as prolongation of activated partial thromboplastin time at 300 uM incubated for 2 mins by aPTT reagent based assay relative to control; format: functional
[17] = Toxicity in BALB/c mouse assessed as prolongation of bleeding time at 30 mg/kg, po measured after 90 mins; format: organism-based; details: in vivo, 1.5 h

| Compound | IC50 (Coagulation factor XII [1]) [nM] | inhibition [2] [%] | other results |
| --- | --- | --- | --- |
| CN(C)CCN(C)c1ccc(C(=O)n2nc(-c3ccccn3)nc2N)cc1 | 190 | 72 | – |
| CC(C)N1CCN(c2ccc(C(=O)n3nc(-c4ccc(Cl)cn4)nc3N)cc2)CC1 | 81 | 77 | – |
| CN1CCN(c2ccc(C(=O)n3nc(-c4ccncc4)nc3N)cc2)CC1 | 195 | 71 | – |
| Nc1nc(-c2ccccn2)nn1C(=O)c1ccc(N2CCN(C3CCCC3)CC2)c2ccccc12 | 50 | – | – |
| Nc1nccc2c(NCC34COC(COc5ccn6ccnc6c5)(C3)C4)cccc12 | – | – | IC50 (Coagulation factor XII [3]): 100 nM |
| Nc1nc(-c2ccccn2)nn1C(=O)c1cccc(N2CCC3(CC2)OCCO3)c1 | – | 40 | – |
| Nc1nc(-c2ccccn2)nn1C(=O)c1ccc(N2CCN(C3CC3)CC2)c2ccccc12 | 40 | – | – |
| Cc1cc(C(=O)n2nc(-c3ccccn3)nc2N)ccc1N1CCN(C(C)C)CC1 | 48 | 82 | Activity (RAW264.7 [4]): Active; Activity (RAW264.7 [5]): Active |
| Cc1cc(N2CCn3c(nnc3C(F)(F)F)[C@@H]2C)ncc1CNc1cccc2c(N)nccc12 | – | – | IC50 (Coagulation factor XII [3]): 10 nM |
| CN1CC=C(c2ccc(C(=O)n3nc(-c4ccccn4)nc3N)cc2)CC1 | – | 40 | – |
| CN1CCN(c2cccc(C(=O)n3nc(-c4ccccn4)nc3N)c2)CC1 | – | 21 | – |
| Nc1nc(-c2ccccn2)nn1C(=O)c1ccc(NC(=O)c2ccccc2)cc1F | – | 28 | – |
| Nc1nc(-c2ccccn2)nn1C(=O)c1ccc(N2CCN(C3COC3)CC2)c2ccccc12 | 39 | – | Ratio IC50 [6]: > 640; Ratio IC50 [7]: > 640; IC50 (Chymotrypsin): > 25000 nM; Ratio IC50 [8]: > 640; IC50 (Plasminogen): > 25000 nM; IC50 [9]: > 25000 nM; Ratio IC50 [10]: > 640; IC50 (Trypsin): > 25000 nM; Ratio IC50 [11]: > 640; IC50 (Plasma kallikrein): > 25000 nM; Activity (RAW264.7 [4]): Active; IC50 (Coagulation factor X): > 25000 nM; IC50 (Coagulation factor XI): > 25000 nM; Activity (RAW264.7 [5]): Active; Ratio IC50 [12]: 830; Activity (Plasma [13]): inactive; Ratio IC50 [14]: > 640; IC50 (Prothrombin): 20000 nM; Ratio IC50 [15]: > 640; Activity (Plasma [16]): 472% |
| Nc1nc(-c2ccccn2)nn1C(=O)c1ccc(NCc2ccccc2)cc1 | – | 39 | – |
| Cc1cc(C(=O)n2nc(-c3ccccn3)nc2N)cc(C)c1N1CCN(C(C)C)CC1 | – | 28 | – |
| CN(C)C(=O)N1CCN(c2ccc(C(=O)n3nc(-c4ccccn4)nc3N)c3ccccc23)CC1 | 86 | – | – |
| CC(C)N1CCN(c2ccc(C(=O)n3nc(-c4ccccn4)nc3N)c3c2OCCO3)CC1 | 51 | – | – |
| COCCN1CCN(c2ccc(C(=O)n3nc(-c4ccccn4)nc3N)cc2)CC1 | – | 65 | – |
| O=C(NC[C@H]1CN(c2ccc(N3CCOCC3=O)cc2)C(=O)O1)c1ccc(Cl)s1 [RIVAROXABAN] | – | – | Activity [17]: Toxic |
| Nc1nc(-c2ccccn2)nn1C(=O)c1ccc(N2CCC3(CC2)OCCO3)cc1 | 202 | 70 | – |
| CC(C)N1CCN(c2ccc(C(=O)n3nc(-c4ccc(F)cn4)nc3N)cc2)CC1 | 79 | 79 | Activity (RAW264.7 [4]): Active; Activity (RAW264.7 [5]): Active |
| CN1CCN(c2ccc(C(=O)n3nc(-c4cccnc4)nc3N)cc2)CC1 | – | 57 | – |
| Nc1nc(-c2ccccn2)nn1C(=O)c1ccc(NC(=O)c2ccccc2)c(F)c1 | – | 9 | – |
| CC(C)S(=O)(=O)N1CCN(c2ccc(C(=O)n3nc(-c4ccccn4)nc3N)c3ccccc23)CC1 | 95 | – | – |
| COc1cc(C(=O)n2nc(-c3ccccn3)nc2N)ccc1N1CCN(C(C)C)CC1 | – | 43 | – |

More lines, main results first:

| IC50 (Coagulation factor XII [1]) [nM] | inhibition [2] [%] | Compound | other results |
| --- | --- | --- | --- |
| 56 | – | Nc1nc(-c2ccccn2)nn1C(=O)c1ccc(N2CCN(C3CCCCC3)CC2)c2ccccc12 | – |
| – | 24 | Nc1nc(-c2ccccn2)nn1C(=O)c1ccc(NC(=O)[C@@H](Cc2ccccc2)NC2CCCCC2)cc1 | – |
| – | 33 | Nc1nc(-c2ccccn2)nn1C(=O)c1ccc(NC(=O)[C@@H](CC2CCCCC2)NC2CCCCC2)cc1 | – |
| – | 62 | Nc1nc(-c2ccccn2)nn1C(=O)c1ccc(NC(=O)c2cccc3c2CCCC3)cc1 | – |
| – | 60 | Nc1nc(-c2ccccn2)nn1C(=O)c1ccc(NC(=O)c2cccc3ccccc23)cc1 | – |
| – | 28 | CC(C)C[C@@H](NC1CCCC1)C(=O)Nc1ccc(C(=O)n2nc(-c3ccccn3)nc2N)cc1 | – |
| – | 62 | Nc1nc(-c2ccccn2)nn1C(=O)c1ccc(NC(=O)c2cccc3c2OCCO3)cc1 | – |
| – | 34 | CN1CCC(c2ccc(C(=O)n3nc(-c4ccccn4)nc3N)cc2)CC1 | – |
| 72 | 79 | CC(C)N1CCN(c2ccc(C(=O)n3nc(-c4ccccn4)nc3N)cc2)CC1 | – |
| 180 | 72 | CN1CCN(c2ccc(C(=O)n3nc(-c4ccccn4)nc3N)cc2)CC1 | – |
| – | 63 | Nc1nc(-c2ccccn2)nn1C(=O)c1ccc(N2CCN(CCO)CC2)cc1 | – |
| 163 | 74 | Nc1nc(-c2ccccn2)nn1C(=O)c1ccc(NC(=O)c2ccccc2)cc1 | Ratio IC50 [6]: > 150; Ratio IC50 [7]: > 30; IC50 (Chymotrypsin): > 5000 nM; Ratio IC50 [8]: > 150; IC50 (Plasminogen): > 5000 nM; IC50 [9]: > 5000 nM; Ratio IC50 [10]: > 30; IC50 (Trypsin): > 5000 nM; Ratio IC50 [11]: > 30; IC50 (Plasma kallikrein): > 25000 nM; IC50 (Coagulation factor XI): > 25000 nM; Ratio IC50 [12]: 770; Ratio IC50 [14]: > 30; IC50 (Prothrombin): 15700 nM; Ratio IC50 [15]: > 30; Activity (Plasma [16]): 35% |
| – | 21 | Nc1nc(-c2ccccn2)nn1C(=O)c1ccc(N2CCC3(CC2)CC3)cc1 | – |

From ChEMBL document CHEMBL5500412, “Discovery of Highly Selective, Potent, Covalent, and Orally Bioavailable Factor XIIa Inhibitors for the Treatment of Thrombo-Inflammation” (J Med Chem, 2024)
